# Laboratory results from PMC5220503, “Simultaneous Determination of Bergapten, Imperatorin, Notopterol, and Isoimperatorin in Rat Plasma by High Performance Liquid Chromatography with Fluorescence Detection and Its Application to Pharmacokinetic and Excretion Study after Oral Administration of Notopterygium incisum Extract” (International Journal of Analytical Chemistry, 2016).
# Where two headings read alike, the source gives them in different places.
# Assays:
# [1] = Excretion study in rat urine, feces and bile after oral N. incisum extract; type: in vivo, Sprague–Dawley rats; details: 0–72 h, oral 4.2 g kg^−1 N. incisum extract; for cumulative excretion in feces: rat feces; for cumulative excretion in urine: rat urine
# Text: Sixteen male Sprague–Dawley (SD) rats (200 ± 20 g) were divided into two groups (group 1 were for collecting urine and fecal samples in metabolic cages while group 2 were for collecting bile samples from the bile duct using polyethylene tubes). For group 1, the rats were orally given N. incisum extract dissolved in 0.5% CMC-Na at a dosage of 4.2 g kg^−1 and placed in metabolic cages enabling collection of urine and fecal samples separately. The urine and fecal samples were collected at time intervals of 0–4, 4–8, 8–12, 12–24, 24–36, 36–48, 48–60, and 60–72 h. For group 2, the rats were anaesthetized with chloral hydrate at a dose of 0.3 g kg^−1 administered intraperitoneally. A polyethene tube was used in cannulating the bile duct ensuring continuous flow of bile. The rats were then administered the extract at a dose of 4.2 g kg^−1 and the bile samples were then collected at different time intervals (0-1, 1-2, 2-3, 3-4, 4-5, 5-6, 6-7, 7-8, and 8-9 h). After the volumes of urine and bile obtained were measured, these samples were stored at −20°C until analysis. The preparation of the urine and bile samples were the same as the plasma sample preparation described above. On the other hand, the fecal samples after collection were dried out in a drying oven at 40°C. After measuring the weights of the fecal samples, they were crushed by a mortar to achieve a uniform powder; 0.1 g of powdered feces was measured and 1 mL methanol was added in 1.5 mL polythene tubes, mixed sufficiently for 3 min, and extracted ultrasonically for 30 min. They were then centrifuged at 18000 ×g for 10 min. Supernatants were transferred into vials for analysis using HPLC-FLD.
# [2] = Stability of analytes in rat plasma (QC samples); type: in vitro ADME; details: n = 6; for Stability, Autosampler for 24 h, Mean: extracted rat plasma, autosampler 24 h; for Stability, Freeze-thaw cycles, Mean / Stability, At −80°C for 1 month, Mean: rat plasma; for Stability, Freeze-thaw cycles, Mean: three freeze/thaw cycles
# Protocol: Mixed quality control (QC) samples at high, medium, low, and LLOQ concentrations were made by spiking appropriate mixed standard solutions into blank rat plasma, giving plasma concentration ranges of 600, 60, 12, and 4 ng mL^−1 for bergapten, 6000, 600, 120, and 40 ng mL^−1 for imperatorin, 600, 60, 12, and 4 ng mL^−1 for notopterol, and 300, 30, 6, and 2 ng mL^−1 for isoimperatorin, respectively, followed by the same sample preparation and extraction method described above.
# The recovery was determined by comparing the observed peak area in extracted plasma samples to those of postprocessed spiked samples. […]
# [3] = Pharmacokinetic study in rats after oral administration of N. incisum extract (HPLC-FLD of plasma); type: in vivo, Sprague–Dawley rats
# Protocol: HPLC analysis was performed on an Agilent 1100 HPLC (Agilent Technologies, USA) equipped with a quaternary pump, a degasser, an autosampler, a column thermostat compartment, and a diode array detector (DAD). An Agilent fluorescence detector was coupled to the Agilent system. Separation was carried out with a Hedera ODS column (4.6 mm × 250 mm, 5 μm) by gradient elution at a temperature of 40°C. Excitation and emission of the fluorescence detector were set to 300 nm and 490 nm, respectively. The analysis involved a constant flow rate of 1.0 mL min^−1 and an injection volume of 30 μL. The mobile phase comprised of (A) aqueous formic acid (0.1%, v/v) and (B) acetonitrile after degassing through ultrasonication using a gradient elution of 15–30% B at 0 to 10 min, 30–42% B at 10 to 20 min, 42% B at 20 to 65 min, 42–80% B at 65–70 min, and 80–90% at 70–75 min. The reequilibration time of gradient elution was 10 min. Owing to the similarity in polarity of imperatorin and notopterol, it was essential to maintain 42% of acetonitrile for 45 min to ensure that the two compounds were well separated.
# To a 100 μL aliquot of plasma sample, 10 μL IS solution was added. Samples were vortex-mixed for 2 min, extracted with 1000 μL ethyl acetate, and then centrifuged for 10 min at 18000 ×g. Supernatant was transferred into another centrifuge tube and evaporated to dryness using nitrogen gas. The dried residue was reconstituted by adding 100 μL methanol. The solution was shaken and ultrasonicated for 2 min. It was then centrifuged at 18000 ×g for 10 min. A 30 μL of the solution was run with the HPLC and analysis was performed.
# The PK study was carried out in accordance with the guidelines for the care and use of laboratory animals and approved by the Animal Ethics Committee of Tianjin University of Traditional Chinese Medicine. Eight male Sprague–Dawley rats weighing 180–220 g were kept at the animal center of Tianjin University of Traditional Chinese Medicine (Tianjin, China) with controlled conditions (temperature at 25 ± 2°C and relative humidity of 55 ± 5%). They were allowed free access to food and water and acclimatized for 7 days until 12 h before the experiment. According to the clinical dose used in human for each day, the rats were administered an oral dose of 4.2 g kg^−1 N. incisum extract suspended in 0.5% carboxymethylcellulose sodium salt aqueous solution (CMC-Na) and an amount of blood sample (200 μL) was collected at time 0, 0.083, 0.167, 0.25, 0.5, 0.75, 1, 1.5, 2, 3, 4, 6, 8, 12, and 24 h into heparin-pretreated tubes from the fossa orbitalis of each rat after oral administration of the extract. Blood plasma was immediately obtained by centrifuging the collected blood at 3300 ×g for 10 min and storing at −20°C until analysis.
# The DAS software (Drug and Statistics 1.0, Medical College of Wannan, China), a computer program, was used in calculating the pharmacokinetic parameters after administering N. incisum extract. Bergapten, imperatorin, and isoimperatorin where analyzed using a one-compartment analysis while notopterol was processed using a two-compartment analysis based on Akaike's information criterion (AIC) estimation.
# [4] = high QC (600, 6000, 600, 300 ng mL^−1)
# [5] = low QC (12, 120, 12, 6 ng mL^−1)
# [6] = medium QC (60, 600, 60, 30 ng mL^−1)
# [7] = male, Sprague-Dawley, rat, plasma, po, 4.2 g/kg, rat plasma, oral 4.2 g kg^−1 N. incisum extract, n = 8, mean ± SD, read-out: T 1/2 (converted)
# [8] = male, Sprague-Dawley, rat, plasma, po, 4.2 g/kg, rat plasma, oral 4.2 g kg^−1 N. incisum extract, n = 8, mean ± SD, read-out: T max
# [9] = male, Sprague-Dawley, rat plasma, oral 4.2 g kg^−1 N. incisum extract, n = 8, mean ± SD, read-out: AUC0–∞
# [10] = male, Sprague-Dawley, rat plasma, oral 4.2 g kg^−1 N. incisum extract, n = 8, mean ± SD, read-out: C max
# [11] = male, Sprague-Dawley, rat plasma, oral 4.2 g kg^−1 N. incisum extract, read-out: total drug exposure in rats in over 24 h, AUC0–24
# [12] = rat plasma, oral 4.2 g kg^−1 N. incisum extract, n = 8, mean ± SD
# [13] = male, Sprague-Dawley, rat, in vivo, po, 4.2 g/kg
SMILES,cumulative excretion in feces [1],"half-life [3, 7] [h]","Tmax [3, 8] [h]","AUC(0-inf) [3, 9] [ng·h/mL]","Cmax [3, 10] [ng/mL]","AUC(0-t) [3, 11] [ng·h/mL]","T 1/2 [3, 12] [h]","T max [3, 12] [h]",cumulative excretion in urine [1],further results
"COc1c2ccoc2cc2oc(=O)ccc12 [Bergapten, bergapten]",about 80%,12,~3,1960 ± 2490,184 ± 171,1640 ± 2490,12.8 ± 22.2,3.06 ± 3.71,–,"Stability, Autosampler for 24 h, Mean ([2]; LLOQ QC (4, 40, 4, 2 ng mL^−1)): 100%; Stability, Autosampler for 24 h, Mean [2, 4]: 88.9%; Stability, Autosampler for 24 h, Mean [2, 5]: 101%; Stability, Autosampler for 24 h, Mean [2, 6]: 115%; Stability, Freeze-thaw cycles, Mean ([2]; LLOQ QC (4, 40, 4, 2 ng mL^−1)): 106%; Stability, Freeze-thaw cycles, Mean [2, 4]: 85.1%; Stability, Freeze-thaw cycles, Mean [2, 5]: 91.1%; Stability, Freeze-thaw cycles, Mean [2, 6]: 83.6%; Stability, At −80°C for 1 month, Mean ([2]; LLOQ QC (4, 40, 4, 2 ng mL^−1)): 80.5%; Stability, At −80°C for 1 month, Mean [2, 4]: 112%; Stability, At −80°C for 1 month, Mean [2, 5]: 91.1%; Stability, At −80°C for 1 month, Mean [2, 6]: 104%"
"CC(C)=CCOc1c2occc2cc2ccc(=O)oc12 [Imperatorin, imperatorin]",–,–,–,–,–,–,–,–,–,"AUC(0-inf) [3, 13]: 13900 ± 13900 ng·h/mL; AUC(0-t) [3, 13]: 11000 ± 12000 ng·h/mL; Cmax [3, 13]: 1670 ± 1500 ng/mL; T 1/2 [3, 13]: 4.99 ± 3.02 h; T max [3, 13]: 1.65 ± 1.80 h; half-life ([3]; male, Sprague-Dawley, rat, in vivo, po, 4.2 g/kg, T 1/2): ≤ 6 h; Tmax ([3]; male, Sprague-Dawley, rat, in vivo, po, 4.2 g/kg, T max): < 2 h"
"CC(C)=CCOc1c2ccoc2cc2oc(=O)ccc12 [Isoimperatorin, isoimperatorin]",7.7284 + 2.2114%,≤ 6,< 2,2120 ± 2870,145 ± 75.9,830 ± 762,5.62 ± 4.06,1.59 ± 0.97,0.0084 + 0.0016%,–
"CC(C)=CC(O)C/C(C)=C/COc1c2ccoc2cc2oc(=O)ccc12 (stereo not shown) [Notopterol, notopterol]",54.1083 + 4.4359%,≤ 6,–,296 ± 242,23.3 ± 6.87,102 ± 34.8,3.18 ± 3.44,0.45 ± 0.35,0.1171 + 0.0096%,"T max ([3]; rat plasma, oral 4.2 g kg^−1 N. incisum extract, n = 8, mean ± SD, listed as notopterol): below 2 h"
"COc1ccc2ccc(=O)oc2c1CC=C(C)C [osthole, reference compound]",–,–,–,–,–,–,–,–,–,detection in rat plasma ([3]; after oral 4.2 g kg^−1 N. incisum extract): not detected
